Test results taken from patent US20060079512A1, “Dibenzodiazepinone analogues, processes for their production and their use as pharmaceuticals” (Ecopia BioSciences, Inc., priority 2003, published 2006).
Like-named read-outs stand apart in the source and are kept apart here.

How the values were obtained:
Format in all cases: cell-based
[1] = tested on: HT-29 (colorectal carcinoma); experiment: In vitro cytotoxic activity (GI50), method (a), propidium iodide; details: read-out: HT-29 (GI50 μM)
Description: (§1) Compounds were dissolved at 10 mM in DMSO. Dilution in vehicle to concentrations of 30, 10, 3, 1 and 0.3 μM were prepared immediately before assays. Depending on the cell line's growth characteristics, 4000-10000 cells were plated in two 96-wells pates (day 0) and incubated for 16 hours. The following day, propidium iodide was added to one of the two plates and fluorescence measured (Tz). Test compounds were added to the second plate, as well as vehicle control, and cells further incubated for 96 hours. Each compound was tested at each concentration and in triplicates. The equivalent cell number was determined after adding propidium iodide by measuring the signal by fluorescence (C for control).

[2] = tested on: MDA-MB-231 (mammary gland adenocarcinoma); experiment: as above; details: read-out: MDA-MB-231 (GI50 μM)
Description: as §1

[3] = tested on: PC-3 (prostate adenocarcinoma); experiment: as above; details: read-out: PC-3 (GI50 μM)
Description: as §1

SF268 (CNS) = experiment: as above; details: read-out: SF-268 (GI50 μM)
Description: as §1

[4] = tested on: HT-29, SF-268, PC-3, MDA-MB-231; experiment: Average GI50 over the four cell lines, method (a); details: for GI50: read-out: Average (GI50 μM); for anticancer activity compared with Compound 1: four cell lines
Description: as §1

[5] = Homo sapiens, HT-29, method (a), 96 hours
[6] = Homo sapiens, MDA-MB-231, method (a), 96 hours
[7] = Homo sapiens, SF-268, method (a), 96 hours
[8] = method (a), values > 30 not considered

Row | SMILES | GI50 [4, 8] | GI50 [1, 5] | GI50 [2, 6] | GI50 ([3]; method (a), 96 hours) | GI50 (SF268 (CNS); [7]) | GI50 ([1]; Homo sapiens, HT-29, 96 h) | GI50 ([2]; Homo sapiens, MDA-MB-231, 96 h) | GI50 ([3]; 96 h) | GI50 (SF268 (CNS); Homo sapiens, SF-268, 96 h) | GI50 [4] | anticancer activity compared with Compound 1 ([4]; method (a)) | GI50 ([1]; method (a), 96 hours) | GI50 ([2]; method (a), 96 hours) | GI50 (SF268 (CNS); method (a), 96 hours)
1 | CC(=O)Oc1cccc2c1Nc1c(OC(C)=O)cc(O)cc1N(CC=C(C)CCC=C(C)CCC=C(C)C)C2=O [Compound 10, 4,6-diacetoxy-10-farnesyl-8-hydroxy-5,10-dihydro-dibenzo[b,e][1,4]diazepin-11-one] |  |  |  |  |  | 13 µM | 1.55 µM | 1.35 µM | 2.02 µM | 4.48 µM |  |  |  | 
2 | COc1cc(OC)c2c(c1)N(C/C=C(\C)CC/C=C(\C)CCC=C(C)C)C(=O)c1cccc(O)c1N2 [Compound 6, 10-farnesyl-4-hydroxy-6,8-dimethoxy-5,10-dihydro-dibenzo[b,e][1,4]diazepin-11-one] | 20.8 µM | > 30 µM | 24.6 µM | 19 µM | 18.9 µM |  |  |  |  |  |  |  |  | 
3 | CC(=O)Oc1cc(O)c2c(c1)N(CC=C(C)CCC=C(C)CCC=C(C)C)C(=O)c1cccc(OC(C)=O)c1N2 [Compound 11, 4,8-diacetoxy-10-farnesyl-6-hydroxy-5,10-dihydro-dibenzo[b,e][1,4]diazepin-11-one] |  |  |  |  |  | 16 µM | 7.72 µM | 5.35 µM | 5.79 µM | 8.72 µM |  |  |  | 
4 | CC(C)CCCC(C)CCCC(C)CCN1C(=O)c2cccc(O)c2Nc2c(O)cc(O)cc21 (stereo not shown) [Compound 46, 10-(3,7,11-trimethyldodecyl)-4,6,8-trihydroxy-5,10-dihydro-dibenzo[b,e][1,4]diazepin-11-one] | 1.62 µM | 4.26 µM | 0.59 µM | 0.9 µM | 0.72 µM |  |  |  |  |  | generally more active than Compound 1 |  |  | 
5 | CC(=O)Oc1cc(OC(C)=O)c2c(c1)N(CC=C(C)CCC=C(C)CCC=C(C)C)C(=O)c1cccc(OC(C)=O)c1N2 [Compound 12, 4,6,8-triacetoxy-10-farnesyl-5,10-dihydro-dibenzo[b,e][1,4]diazepin-i 1-one] | 3.82 µM |  |  | 1.2 µM |  |  |  |  |  |  | generally more active than Compound 1 | 9.33 µM | 2.79 µM | 1.95 µM
6 | CC(=O)Oc1cc(OC(C)=O)c2c(c1)N(CC=C(C)CCC=C(C)CCC=C(C)C)C(=O)c1cccc(O)c1N2 [Compound 9, 6,8-diacetoxy-10-farnesyl-4-hydroxy-5,10-dihydro-dibenzo[b,e][1,4]diazepin-11-one] |  |  |  |  |  | 12.6 µM | 2.48 µM | 1.44 µM | 1.88 µM | 4.6 µM |  |  |  | 

Continued, in another order:

Row | GI50 [4, 8] | SMILES | GI50 [1, 5] | GI50 [2, 6] | GI50 ([3]; method (a), 96 hours) | GI50 (SF268 (CNS); [7]) | GI50 ([1]; Homo sapiens, HT-29, 96 h) | GI50 ([2]; Homo sapiens, MDA-MB-231, 96 h) | GI50 ([3]; 96 h) | GI50 (SF268 (CNS); Homo sapiens, SF-268, 96 h) | GI50 [4] | anticancer activity compared with Compound 1 ([4]; method (a)) | GI50 ([1]; method (a), 96 hours) | GI50 ([2]; method (a), 96 hours) | GI50 (SF268 (CNS); method (a), 96 hours)
7 | 6.18 µM | CC(C)=CCC/C(C)=C/CC/C(C)=C/CN1C(=O)c2cccc(O)c2N(Cc2ccccc2)c2c(O)cc(O)cc21 [Compound 3, 5-benzyl-10-farnesyl-4,6,8-trihydroxy-5,10-dihydro-dibenzo[b,e][1,4]diazepin-11-one] | 7.3 µM | 6.32 µM | 5.36 µM | 5.73 µM |  |  |  |  |  |  |  |  | 
8 | 16.1 µM | COc1cccc2c1Nc1c(OC)cc(O)cc1N(CC=C(C)CCC=C(C)CCC=C(C)C)C2=O [Compound 7, 10-farnesyl-8-hydroxy-4,6-dimethoxy-5,10-dihydro-dibenzo[b,e][1,4]diazepin-11-one] | 14.1 µM | 17.4 µM | 14.6 µM | 18.5 µM |  |  |  |  |  |  |  |  | 
9 | 16 µM | COc1cc(O)cc2c1Nc1c(O)cccc1C(=O)N2C/C=C(\C)CC/C=C(\C)CCC=C(C)C [Compound 5, 10-farnesyl-4,8-dihydroxy-6-methoxy-5,10-dihydro-dibenzo[b,e][1,4]diazepin-11-one] | 14.4 µM | 20.5 µM | 15.6 µM | 13.4 µM |  |  |  |  |  |  |  |  | 
10 | 9.2 µM | COc1cccc2c1Nc1c(O)cc(O)cc1N(C/C=C(\C)CC/C=C(\C)CCC=C(C)C)C2=O [Compound 4, 10-farnesyl-6,8-dihydroxy-4-methoxy-5,10-dihydro-dibenzo[b,e][1,4]diazepin-11-one] | 14.7 µM | 11.3 µM | 5.86 µM | 4.97 µM |  |  |  |  |  |  |  |  | 
